In patent publication US7320890B2, “Soluble steroidal peptides for nucleic acid delivery” (University of Utah Research Foundation, priority 2001, dated 2008):
Where a SMILES comes first, the peptide text is derived from it. Where no end group is shown, it is not given here. The star is where a group is joined. Lithocholoyl = C[C@H](CCC(=O)*)[C@H]1CC[C@H]2[C@@H]3CC[C@@H]4C[C@H](O)CC[C@]4(C)[C@H]3CC[C@]12C

What was measured:
[1] = system: CT-26 colon carcinoma cell lines; test: In vitro transfection, luciferase activity; type: cell-based; settings: CT-26 cells, controls without carrier conjugate or without plasmid
Experimental: SSP/pLuc and SSP/p2CMVmIL-12 complexes formulated at various N/P ratios in 5% (w/v) glucose were evaluated for their transfection efficiency in CT-26 colon carcinoma cell lines. In the case of luciferase gene controls, cells were lysed after transfection and the relative light units (RLU) and total protein concentration were determined. […] The transfection efficiency increased with the increase in N/P ratios but diminished slightly with ratios 50/1 and above which could possibly be due to cytotoxicity towards CT-26 cells. On visual inspection under light microscope some granulation of cells was found, and cytotoxicity tests indicate that above N/P ratios 50/1 the cell viability is reduced by about 80%, which would account for lower gene expression.
In case of pLuc, CT-26 cells were seeded in 12-well tissue culture plates at 1×10^5 cells per/well in 10% FBS containing RPMI 1640 media. Cells achieved 70% confluency within 24 hours, after which they were transfected with SSP/pDNA complexes prepared at different N/P ratios ranging from 5/1 to 50/1 as described above. […] Luciferase activity was measured in terms of relative light units (RLU) using 96 well plate Luminometer (Dynex Technologies Inc, Chantilly, Va.). The luciferase activity was monitored and integrated over a period of 30 secs. […]

CT-26 cells = test: Membrane permeabilization study (ethidium bromide staining, flow cytometry); type: cell-based; settings: for levels of staining: pH 7.4; for cells stained (ethidium bromide fluorescence): 10 μM SSP
Experimental: Membrane permeabilization studies were performed to find out whether SSP was able to form pores through plasma membranes and whether this phenomenon had any pH dependence or not. SSP prepared according to Example 1 was used at micromolar concentrations on cells preincubated with ethidium bromide, which intercalates between the strands of dsDNA and causes it to fluoresce. Ethidium bromide on its own is a poor membrane permeant, however, if the membranes are permeabilized, it would rapidly cross the cytoplasm, accumulate in the nucleus, and bind to the cellular DNA. Its fluorescent property would allow us to thus find the extent to which permeabilization via SSP occurred.
The membrane permeabilization activity of SSP was determined using flow cytometry. CT-26 cells were grown overnight and at 70-80% confluency were trypsinized and centrifuged. Cells were washed several times in 1×PBS (pH 7.4) and eventually resuspended in it to make cell suspensions of 1×10^6 cells/ml. One microliter of ethidium bromide (10 mg/ml) was mixed in 0.5 ml of cell suspension aliquots and stored at 4° C. 15 minutes before use. The pH of cell suspensions was adjusted to values 5,6,7, or 8 using either 1N NaOH or 1N HCl solutions 5 minutes before starting the experiment. SSP was finally used to permeabilize the membranes at the same final concentration for pH studies or at different concentrations at pH 7.4. Temperature effects at 4° C. and 37° C. were also studied to find any temperature dependent differences in permeabilization. After 5 and 15 minutes incubation, the cell fluorescence intensity was measured using FACScan Analyzer (Becton Dickinson, Sunnyvale, Calif.), which has a single 15-mW argon (488 nm) laser light source. A 585 nm long pass filter was used to collect the emitted red fluorescence. The forward scatter, side scatter, and ethidium bromide fluorescence were simultaneously recorded with 10,000 cells at 300 events per second. The results were later analyzed using cell quest software provided by the same manufacturer. Histogram statistics were used to quantitatively determine the extent of permeabilization.

plasmid DNA = test: Condensation of plasmid DNA (gel electrophoresis); type: physicochemical; settings: 4.5% (w/v) glucose, phosphate buffer pH 8.0
Experimental: Various formulations of SSP/p2CMVmIL-12 were prepared as follows: 100 μL aliquots of SSP at various concentrations and pDNA (0.2 mg/ml) were prepared in 4.5% (w/v) glucose to bring the osmolality to 285-295 mOsm, and 1M phosphate buffer was used to bring the pH to 8.0 of both aliquots. SSP/pDNA complexes at various N/P ratios ranging from 0.5/1 (N/P) to 50/1 (N/P) were prepared by rapidly mixing contents of SSP aliquot in pDNA aliquots using a pipettor. N/P ratio was calculated by taking into account 3 nitrogens for each arginine in SSP, thereby resulting in 18 nitrogens for each SSP molecule. The SSP/pDNA complexes were incubated for 15 minutes at room temperature before electrophoresis.

[2] = mouse, CT-26 colon adeno-carcinoma cells
Experimental: (§1) Cytotoxicity of SSP/p2CMVmIL-12 complexes prepared at different N/P ratios were assessed using an MTT assay. CT-26 colon adeno-carcinoma cells were grown and maintained in RPMI 1640 medium (GIBCO-BRL, Gaithersburg, Md.), which was supplemented with 10% fetal bovine serum (FBS), 100 U/ml penicillin, 100 U/ml streptomycin and 50 μg/ml gentamycin (all from Gibco-BRL, Gaithersburg, Md.) at 37° C. and humidified 5% CO2.
(§2) Briefly, CT-26 cell lines were seeded in 96 well plates at 4000 cells/well and incubated for 24 hours. After checking the cell confluency, which was over 80%, SSP/p2CMVmIL-12 complexes prepared at N/P ratios ranging from 5/1 to 100/1 were added to the cells at a dose of 0.15 μg pmIL-12/well. Following 48 hrs of incubation, 25 μl of 5 mg/ml 3-[4,5-dimethylthiazol-2-yl]-2,5-diphenyltetrazolium bromide (MTT, Sigma Chemical Co., St. Louis, Mo.) stock solution in phosphate buffered saline (PBS, Gibco-BRL) was poured into each well reaching a final concentration of 0.5 mg/ml MTT. The plate was then incubated at 37° C. in 5% CO2 for 4 hrs. The medium was removed and 150 μl of dimethyl sulfoxide (DMSO, Aldrich) was added to dissolve the formazan crystals. The plate was read spectrophotometrically at 570 nm in an ELISA plate reader. The relative cell viability was calculated as [Abs]sample/[Abs]control×100. […]

[3] = system: CT-26 colon adeno-carcinoma cells; test: Cytotoxicity MTT assay; settings: SSP alone, amounts equivalent to those used in N/P ratios 20/1
Experimental: as §1, §2

Compound	transfection / gene expression (in words) [1]	levels of staining (CT-26 cells; 5 μM of SSP or above)	levels of staining (CT-26 cells; 10 μM SSP and above)	cells stained (ethidium bromide fluorescence) (CT-26 cells; pH 5 and 6, within 5 minutes)	cells stained (ethidium bromide fluorescence) (CT-26 cells; pH 5 and 6, within 5 minutes, listed as soluble steroidal peptide)	cells stained (ethidium bromide fluorescence) (CT-26 cells; pHs above the pKa of the imidazole ring of histidine (pKa=6.1), pH 7 and 8)	N/P ratio at which pDNA is condensed completely (plasmid DNA)	viability at 48 h [2]	cytotoxicity (in words) [3]
HHYRRRHKSRRRLHH [Peptide sequence, reference compound]	not effective								
CC(C)C[C@H](NC(=O)[C@H](CCCNC(=N)N)NC(=O)[C@H](CCCNC(=N)N)NC(=O)[C@H](CCCNC(=N)N)NC(=O)[C@H](CO)NC(=O)[C@H](CCCCNC(=O)CC[C@@H](C)[C@H]1CC[C@H]2[C@@H]3CC[C@@H]4C[C@H](O)CC[C@]4(C)[C@H]3CC[C@]12C)NC(=O)[C@H](Cc1c[nH]cn1)NC(=O)[C@H](CCCNC(=N)N)NC(=O)[C@H](CCCNC(=N)N)NC(=O)[C@H](CCCNC(=N)N)NC(=O)[C@H](Cc1ccc(O)cc1)NC(=O)[C@H](Cc1c[nH]cn1)NC(=O)[C@@H](N)Cc1c[nH]cn1)C(=O)N[C@@H](Cc1c[nH]cn1)C(=O)N[C@@H](Cc1c[nH]cn1)C(N)=O [SSP] (H-HHYRRRHK(Lithocholoyl)SRRRLHH-NH2; N-terminus and C-terminus assumed)	did not give any gene expression	> 85%	~100%	over 97%	less than 25%	< 25%	3/1	~75%	non-toxic
